Source: US11827627B2, “N-(hydroxyalkyl (hetero)aryl) tetrahydrofuran carboxamides as modulators of sodium channels” (VERTEX PHARMACEUTICALS INCORPORATED, priority 2021, dated 2023)

Target: human NaV 1.8 (Homo sapiens, UniProt Q9Y5Y9)
Test: E-VIPR assay detecting and measuring NaV inhibition properties
Type: cell-based
Conditions: HEK cells expressing a truncated form of human NaV 1.8; electrical stimulation, membrane potential FRET dyes
Excerpt: E-VIPR Assay Detecting and Measuring NaV Inhibition Properties
Sodium ion channels are voltage-dependent proteins that can be activated by inducing membrane voltage changes by applying electric fields. The electrical stimulation instrument and methods of use, referred to as E-VIPR, are described in International Publication No. WO 2002/008748 A3 and C.-J. Huang et al. Characterization of voltage-gated sodium channel blockers by electrical stimulation and fluorescence detection of membrane potential, 24 Nature Biotech. 439-46 (2006), both of which are incorporated by reference in their entirety. The instrument comprises a microtiter plate handler, an optical system for exciting the coumarin dye while simultaneously recording the coumarin and oxonol emissions, a waveform generator, a current- or voltage-controlled amplifier, and parallel electrode pairs that are inserted into assay plate wells. Under integrated computer control, this instrument passes user-programmed electrical stimulus protocols to cells within the wells of the microtiter plate.
16-20 hours prior to running the assay on E-VIPR, HEK cells expressing a truncated form of human NaV 1.8 with full channel activity were seeded into microtiter 384-well plates, pre-coated with matrigel, at a density of 25,000 cells per well. 2.5-5% KIR2.1 Bacmam virus was added to the final cell suspension before seeding into cell plates. HEK cells were grown in Dulbecco's Modified Eagle's Medium (DMEM) supplemented with 10% FBS (Fetal Bovine Serum, qualified; Sigma #F4135), 1% NEAA (Non-Essential Amino Acids, Gibco #11140), 1% HEPES (Gibco #15630), 1% Pen-Strep (Penicillin-Streptomycin; Gibco #15140) and 5 μg/ml Blasticidin (Gibco #R210-01). Cells were expanded in vented cap cell culture flasks, with 90-95% humidity and 5% CO2.
Reagents and Stock Solutions:
100 mg/mL Pluronic F-127 (Sigma #P2443), in dry DMSO
Compound Plates: Corning 384-well Polypropylene Round Bottom #3656
Cell Plates: 384-well tissue culture treated plates (Greiner #781091-2B)
2.5-5% KIR 2.1 Bacmam virus (produced in-house), prepared as described in Section 3.3 of J. A. Fornwald et al., Gene Expression in Mammalian Cells Using BacMam, a Modified Baculovirus System, 1350 Methods in Molecular Biology 95-116 (2016), the entire contents of which are incorporated by reference. The concentration used can be dependent on viral titer of each batch.
5 mM DiSBAC6(3), a voltage sensitive oxonol acceptor (CAS number 169211-44-3; 5-[3-(1,3-dihexylhexahydro-4,6-dioxo-2-thioxo-5-pyrimidinyl)-2-propen-1-ylidene]-1,3-dihexyldihydro-2-thioxo-4,6(1H,5H)-pyrimidinedione), in dry DMSO. The preparation of DiSBAC6(3) is analogous to that of DiSBAC4(3) as described in Voltage Sensing by Fluorescence Resonance Energy Transfer in Single Cells, Gonzalez, J. E. and Tsien, R. Y. (1995) Biophys. J. 69, 1272-1280.
5 mM CC2-DMPE, a commercially available membrane-bound coumarin phospholipid FRET donor (ThermoFisher Scientific catalog number K1017, CAS number 393782-57-5; tetradecanoic acid, 1,1′-[(1R)-1-[8-(6-chloro-7-hydroxy-2-oxo-2H-1-benzopyran-3-yl)-3-hydroxy-3-oxido-8-oxo-2,4-dioxa-7-aza-3-phosphaoct-1-yl]-1,2-ethanediyl]ester) was prepared in dry DMSO. See also, Improved indicators of cell membrane potential that use fluorescence resonance energy transfer, Gonzalez, J. E. and Tsien, R. Y. (1997) Chem. Biol. 4, 269-277.
Voltage Assay Background Suppression Compound (VABSC-1) is prepared in H2O (89-363 mM, range used to maintain solubility)
Human Serum (HS, Millipore #S1P1-01KL, or Sigma SLBR5469V and SLBR5470V as a 50%/50% mixture, for 25% assay final concentration)
Bath 1 Buffer: • Sodium Chloride 160 mM (9.35 g/L), Potassium Chloride, 4.5 mM (0.335 g/L), Glucose 10 mM (1.8 g/L), Magnesium Chloride (Anhydrous) 1 mM (0.095 g/L), Calcium Chloride 2 mM (0.222 g/L), HEPES 10 mM (2.38 g/L) in water. […]

Chain of human NaV 1.8 (Q9Y5Y9 126-1722 limits assumed): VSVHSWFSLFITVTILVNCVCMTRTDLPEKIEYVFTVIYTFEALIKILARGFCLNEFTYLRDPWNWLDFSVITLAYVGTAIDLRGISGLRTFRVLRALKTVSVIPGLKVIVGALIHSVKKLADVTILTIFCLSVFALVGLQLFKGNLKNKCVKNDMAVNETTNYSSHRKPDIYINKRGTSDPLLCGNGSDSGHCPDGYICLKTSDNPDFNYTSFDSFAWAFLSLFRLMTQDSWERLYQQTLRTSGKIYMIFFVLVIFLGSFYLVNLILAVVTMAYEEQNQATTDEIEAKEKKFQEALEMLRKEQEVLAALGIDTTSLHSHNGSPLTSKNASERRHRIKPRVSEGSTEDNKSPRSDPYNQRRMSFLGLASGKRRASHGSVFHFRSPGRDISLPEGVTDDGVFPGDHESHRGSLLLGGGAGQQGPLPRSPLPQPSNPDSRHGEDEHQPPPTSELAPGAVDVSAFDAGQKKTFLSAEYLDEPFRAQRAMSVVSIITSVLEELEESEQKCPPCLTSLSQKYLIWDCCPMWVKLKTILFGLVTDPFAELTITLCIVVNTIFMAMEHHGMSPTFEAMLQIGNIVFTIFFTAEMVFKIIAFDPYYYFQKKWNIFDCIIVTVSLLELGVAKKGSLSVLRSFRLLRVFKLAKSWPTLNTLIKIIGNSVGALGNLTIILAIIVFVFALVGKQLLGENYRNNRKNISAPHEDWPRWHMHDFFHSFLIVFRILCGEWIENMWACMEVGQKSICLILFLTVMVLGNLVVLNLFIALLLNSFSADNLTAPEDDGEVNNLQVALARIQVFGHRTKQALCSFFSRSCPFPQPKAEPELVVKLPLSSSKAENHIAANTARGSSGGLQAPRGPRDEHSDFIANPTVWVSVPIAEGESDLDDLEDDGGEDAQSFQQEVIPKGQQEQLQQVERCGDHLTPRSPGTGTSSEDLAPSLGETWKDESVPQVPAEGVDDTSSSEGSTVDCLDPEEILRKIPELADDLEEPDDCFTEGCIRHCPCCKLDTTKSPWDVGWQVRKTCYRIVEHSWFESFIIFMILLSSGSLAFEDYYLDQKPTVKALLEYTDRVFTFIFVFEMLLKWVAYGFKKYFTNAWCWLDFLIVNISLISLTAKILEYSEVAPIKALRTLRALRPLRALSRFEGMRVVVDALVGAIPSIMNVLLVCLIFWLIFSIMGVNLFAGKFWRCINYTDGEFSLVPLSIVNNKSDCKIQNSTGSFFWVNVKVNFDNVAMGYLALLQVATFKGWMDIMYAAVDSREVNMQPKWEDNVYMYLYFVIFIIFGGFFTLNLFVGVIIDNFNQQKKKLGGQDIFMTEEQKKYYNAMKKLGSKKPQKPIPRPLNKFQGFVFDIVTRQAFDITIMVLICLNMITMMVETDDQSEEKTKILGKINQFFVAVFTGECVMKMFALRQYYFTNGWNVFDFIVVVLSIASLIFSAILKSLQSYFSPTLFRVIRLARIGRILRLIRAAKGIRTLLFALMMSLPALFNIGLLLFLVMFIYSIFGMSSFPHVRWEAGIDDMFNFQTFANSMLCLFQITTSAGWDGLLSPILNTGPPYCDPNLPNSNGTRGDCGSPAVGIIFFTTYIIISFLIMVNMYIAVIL

`COc1c([C@@H]2C[C@](C)(C(F)(F)F)O[C@H]2C(=O)Nc2ccc([C@@H](O)CO)nc2)ccc(F)c1F` (relative stereo) [Compound 24, rel-(2R,3S,5R)-3-(3,4-difluoro-2-methoxyphenyl)-N-(6-((R*)-1,2-dihydroxyethyl)pyridin-3-yl)-5-methyl-5-(trifluoromethyl)tetrahydrofuran-2-carboxamide] and `COc1c([C@H]2C[C@@](C)(C(F)(F)F)O[C@@H]2C(=O)Nc2ccc([C@@H](O)CO)nc2)ccc(F)c1F` (relative stereo) [Compound 25, rel-(2S,3R,5S)-3-(3,4-difluoro-2-methoxyphenyl)-N-(6-((R*)-1,2-dihydroxyethyl)pyridin-3-yl)-5-methyl-5-(trifluoromethyl)tetrahydrofuran-2-carboxamide] cannot be ordered by IC50: 100 to 1000 nM for the first, at least 1000 nM for the second.

First: COc1c([C@H]2[C@H](C(=O)Nc3ccc(C(C)O)nc3)O[C@@](C)(C(F)(F)F)[C@H]2C)ccc(F)c1C(F)F (relative stereo) [Compound 56, rel-(2R,3S,4S,5R)-3-(3-(difluoromethyl)-4-fluoro-2-methoxyphenyl)-N-(6-(1-hydroxyethyl)pyridin-3-yl)-4,5-dimethyl-5-(trifluoromethyl)tetrahydrofuran-2-carboxamide]
Second: COc1c([C@H]2[C@H](C(=O)Nc3ccc([C@@H](O)[C@@H](C)O)nc3)O[C@@](C)(C(F)(F)F)[C@H]2C)ccc(F)c1F (single isomer, unassigned) [Compound 3, rel-(2R*,3S*,4S*,5R*)-3-(3,4-difluoro-2-methoxyphenyl)-N-(6-((1R,2R)-1,2-dihydroxypropyl)pyridin-3-yl)-4,5-dimethyl-5-(trifluoromethyl)tetrahydrofuran-2-carboxamide]
The IC50 of the first is higher: 10 to 100 nM for the first, under 10 nM for the second. The second is the more potent here.

Compared with `COc1c([C@H]2[C@H](C(=O)Nc3ccc([C@H](O)CO)[n+]([O-])c3)O[C@@](C)(C(F)(F)F)[C@H]2C)ccc(F)c1C` (relative stereo) [Compound 59, rel-2-((S*)-1,2-dihydroxyethyl)-5-((2R,3S,4S,5R)-3-(4-fluoro-2-methoxy-3-methylphenyl)-4,5-dimethyl-5-(trifluoromethyl)tetrahydrofuran-2-carboxamido)pyridine 1-oxide], `COc1c([C@H]2[C@H](C(=O)Nc3ccc([C@@H](O)CO)nc3)O[C@@](C)(C(F)(F)F)[C@H]2C)ccc(F)c1F` (single isomer, unassigned) [Compound 1] is lower in IC50: 10 to 100 nM for the first, under 10 nM for the second.

`COc1c([C@H]2[C@H](C(=O)Nc3ccc([C@H](O)CO)nc3)O[C@@](C)(C(F)(F)F)[C@H]2C)ccc(F)c1F` (single isomer, unassigned) [Compound 2] and `COc1c([C@H]2[C@H](C(=O)Nc3ccc(C(O)CF)nc3)O[C@@](C)(C(F)(F)F)[C@H]2C)ccc(F)c1F` (single isomer, unassigned) [Compound 16, rel-(2R*,3S*,4S*,5R*)-3-(3,4-difluoro-2-methoxyphenyl)-N-(6-(2-fluoro-1-hydroxyethyl)pyridin-3-yl)-4,5-dimethyl-5-(trifluoromethyl)tetrahydrofuran-2-carboxamide] cannot be ordered by IC50: under 10 nM for the first, under 10 nM for the second.

First: COc1c([C@H]2[C@H](C(=O)Nc3ccc([C@H](O)[C@H](C)O)nc3)O[C@@](C)(C(F)(F)F)[C@H]2C)ccc(F)c1F (single isomer, unassigned) [Compound 4, rel-(2R*,3S*,4S*,5R*)-3-(3,4-difluoro-2-methoxyphenyl)-N-(6-((1S,2S)-1,2-dihydroxypropyl)pyridin-3-yl)-4,5-dimethyl-5-(trifluoromethyl)tetrahydrofuran-2-carboxamide]
Second: COc1c(C2C(C(=O)Nc3ccc(C(O)CF)nc3)OC(C)(C(F)(F)F)C2C)ccc(F)c1F (single isomer, unassigned) [Compound 17, rel-(2R*,3S*,4S*,5R*)-3-(3,4-difluoro-2-methoxyphenyl)-N-(6-(2-fluoro-l-hydroxyethyl)pyridin-3-yl)-4,5-dimethyl-5-(trifluoromethyl)tetrahydrofuran-2-carboxamide]
The IC50 of the first is lower: under 10 nM for the first, 10 to 100 nM for the second.

First: COc1c(C2C(C(=O)Nc3cnc(C(O)CO)nc3)OC(C)(C(F)(F)F)C2C)ccc(F)c1F (single isomer, unassigned) [Compound 11]
Second: COc1c([C@H]2C[C@@](C)(C(F)(F)F)O[C@@H]2C(=O)Nc2cnc(C(O)CO)nc2)ccc(F)c1F (single isomer, unassigned) [Compound 28]
The IC50 of the first is lower: under 10 nM for the first, at least 1000 nM for the second. The first is the more potent here.

First: COc1c(C2C(C(=O)Nc3cnc(C(O)CO)nc3)OC(C)(C(F)(F)F)C2C)ccc(F)c1F (single isomer, unassigned) [Compound 12]
Second: COc1c([C@@H]2C[C@](C)(C(F)(F)F)O[C@H]2C(=O)Nc2cnc(C(O)CO)nc2)ccc(F)c1F (single isomer, unassigned) [Compound 29]
The IC50 of the first is lower: 10 to 100 nM for the first, 100 to 1000 nM for the second.

`COCC(O)c1ccc(NC(=O)[C@@H]2O[C@@](C)(C(F)(F)F)[C@@H](C)[C@H]2c2ccc(F)c(F)c2OC)cn1` (single isomer, unassigned) [Compound 20, rel-(2R*,3S*,4S*,5R*)-3-(3,4-difluoro-2-methoxyphenyl)-N-(6-(1-hydroxy-2-methoxyethyl)pyridin-3-yl)-4,5-dimethyl-5-(trifluoromethyl)tetrahydrofuran-2-carboxamide] and `COCCC(O)c1ccc(NC(=O)[C@@H]2O[C@@](C)(C(F)(F)F)[C@@H](C)[C@H]2c2ccc(F)c(F)c2OC)cn1` (single isomer, unassigned) [Compound 22, rel-(2R*,3S*,4S*,5R*)-3-(3,4-difluoro-2-methoxyphenyl)-N-(6-(1-hydroxy-3-methoxypropyl)pyridin-3-yl)-4,5-dimethyl-5-(trifluoromethyl)tetrahydrofuran-2-carboxamide] fall in the same range of IC50: 10 to 100 nM for the first, 10 to 100 nM for the second.

`COCCC(O)c1ccc(NC(=O)[C@@H]2O[C@@](C)(C(F)(F)F)[C@@H](C)[C@H]2c2ccc(F)c(F)c2OC)cn1` (single isomer, unassigned) [Compound 23, rel-(2R*,3S*,4S*,5R*)-3-(3,4-difluoro-2-methoxyphenyl)-N-(6-(1-hydroxy-3-methoxypropyl)pyridin-3-yl)-4,5-dimethyl-5-(trifluoromethyl)tetrahydrofuran-2-carboxamide] and `COc1c([C@@H]2C[C@](C)(C(F)(F)F)O[C@H]2C(=O)Nc2ccc([C@H](O)CO)nc2)ccc(F)c1F` (single isomer, unassigned) [Compound 26, rel-(2R,3S,5R)-3-(3,4-difluoro-2-methoxyphenyl)-N-(6-((S*)-1,2-dihydroxyethyl)pyridin-3-yl)-5-methyl-5-(trifluoromethyl)tetrahydrofuran-2-carboxamide] fall in the same range of IC50: 100 to 1000 nM for the first, 100 to 1000 nM for the second.

`COc1c([C@H]2C[C@@](C)(C(F)(F)F)O[C@@H]2C(=O)Nc2ccc([C@H](O)CO)nc2)ccc(F)c1F` (single isomer, unassigned) [Compound 27, rel-(2S,3R,5S)-3-(3,4-difluoro-2-methoxyphenyl)-N-(6-((S*)-1,2-dihydroxyethyl)pyridin-3-yl)-5-methyl-5-(trifluoromethyl)tetrahydrofuran-2-carboxamide] and `CCOc1c([C@H]2C[C@@](C)(C(F)(F)F)O[C@@H]2C(=O)Nc2ccc([C@H](O)CO)nc2)ccc(F)c1F` (single isomer, unassigned) [Compound 32, rel-(2S,3R,5S)-N-(6-((S*)-1,2-dihydroxyethyl)pyridin-3-yl)-3-(2-ethoxy-3,4-difluorophenyl)-5-methyl-5-(trifluoromethyl)tetrahydrofuran-2-carboxamide] cannot be ordered by IC50: at least 1000 nM for the first, at least 1000 nM for the second.
